Converted amounts (≈) assume the structure as drawn. The source made the active and inactive calls. The rule behind the calls is not given here.
Experiments:
[1] = test system: Klebsiella pneumoniae; experiment: Antibacterial activity against Klebsiella pneumoniae ATCC 10031; type: functional
[2] = test system: Acinetobacter baumannii; experiment: Antibacterial activity against Acinetobacter baumannii ATCC 19606; type: functional
[3] = test system: Staphylococcus aureus; experiment: (§1) Antibacterial activity against methicillin-resistant Staphylococcus aureus ATCC 43300 infected in sepsis mouse model assessed as reduction in bacterial load in blood at 5 mg/kg pre-infected with bacteria for 1 hrs followed by continuous compound administration at 12 hrs intervals for 2 days (reference value: 3.69 log10CFU/ml); type: functional; details: time 2 day
[4] = test system: Pseudomonas aeruginosa; experiment: Antibacterial activity against penicillin-susceptible Pseudomonas aeruginosa ATCC 27853; type: functional
[5] = test system: Staphylococcus aureus; experiment: (§2) Antibacterial activity against methicillin-resistant Staphylococcus aureus ATCC 43300 infected in sepsis mouse model assessed as reduction in number of surviving bacterial colonies in kidney at 5 mg/kg pre-infected with bacteria for 1 hrs followed by continuous compound administration at 12 hrs intervals for 2 days relative to control; type: functional; details: time 2 day
[6] = test system: Staphylococcus aureus; experiment: as §2, with “pathological damages” for “number of surviving bacterial colonies”, “by H and E staining based analysis” for “relative to control”; type: functional, organism-based; details: time 2.0 day
[7] = test system: Staphylococcus aureus; experiment: as §2, with “liver” for “kidney”; type: functional; details: time 2 day
[8] = test system: Bacillus subtilis; experiment: Antibacterial activity against penicillin-susceptible Bacillus subtilis ATCC 9372; type: functional
[9] = test system: Staphylococcus aureus; experiment: as §2, with “blood” for “kidney”; type: functional; details: time 2 day
[10] = test system: Staphylococcus aureus; experiment: as §1, with “liver” for “blood”, “7.16 log10CFU/g)” for “3.69 log10CFU/ml)”; type: functional; details: time 2 day
[11] = test system: Staphylococcus aureus; experiment: as §1, with “spleen” for “blood”, “7.45 log10CFU/g)” for “3.69 log10CFU/ml)”; type: functional; details: time 2 day
[12] = test system: Staphylococcus aureus; experiment: (§3) Antibacterial activity against methicillin-resistant Staphylococcus aureus ATCC 43300 infected in sepsis mouse model assessed as decrease in IL-6 level in blood at 5 mg/kg pre-infected with bacteria for 1 hrs followed by continuous compound administration at 12 hrs intervals for 2 days; type: functional, organism-based; details: time 2.0 day
[13] = test system: Staphylococcus aureus; experiment: as §3, with “reduction” for “decrease”, “pathological damages” for “IL-6 level”, “spleen” for “blood”, “days by H and E staining based analysis” for “days”; type: functional, organism-based; details: time 2.0 day
[14] = test system: Escherichia coli; experiment: Antibacterial activity against penicillin-susceptible Escherichia coli ATCC 25922; type: functional
[15] = test system: Staphylococcus aureus; experiment: Antibacterial activity against methicillin-resistant Staphylococcus aureus ATCC 43300 infected in sepsis mouse model assessed as decrease in TNF-alpha level in blood at 5 mg/kg pre-infected with bacteria for 1 hrs followed by continuous compound administration at 12 hrs intervals for 2 days; type: functional, organism-based; details: time 2.0 day
[16] = test system: Staphylococcus aureus; experiment: as §2, with “spleen” for “kidney”; type: functional; details: time 2 day
[17] = test system: Staphylococcus aureus; experiment: as §1, with “kidney” for “blood”, “6.75 log10CFU/g)” for “3.69 log10CFU/ml)”; type: functional; details: time 2 day
[18] = test system: Enterococcus faecalis; experiment: Antibacterial activity against vancomycin-susceptible Enterococcus faecalis ATCC 29212; type: functional
[19] = test system: Staphylococcus aureus; experiment: as §3, with “reduction” for “decrease”, “pathological damages” for “IL-6 level”, “liver” for “blood”, “days by H and E staining based analysis” for “days”; type: functional, organism-based; details: time 2.0 day
[20] = test system: Staphylococcus aureus; experiment: Antibacterial activity against methicillin-resistant Staphylococcus aureus ATCC 43300; type: functional
[21] = Hemolytic activity in sheep RBC; type: toxicity, cell-based, Ovis aries, Erythrocyte; details: sheep red blood cells (erythrocytes)
[22] = test system: Staphylococcus aureus; experiment: Antibacterial activity against erythromycin-susceptible Staphylococcus aureus ATCC 25923; type: functional
[23] = Selectivity index, ratio of HC50 for hemolytic activity in sheep RBC to MIC for antibacterial activity against methicillin-resistant Staphylococcus aureus ATCC 43300; type: toxicity; details: sheep red blood cells (erythrocytes), read-out: Selectivity Index
[24] = test system: Staphylococcus aureus; experiment: Antibacterial activity against penicillin-resistant Staphylococcus aureus ATCC 31007; type: functional
[25] = test system: Staphylococcus epidermidis; experiment: Antibacterial activity erythromycin-susceptible Staphylococcus epidermidis ATCC 12228; type: functional

Compound | MIC [1] [µg/mL] | MIC [2] [µg/mL] | MIC [4] [µg/mL] | MIC [8] [µg/mL] | MIC [14] [µg/mL] | MIC [18] [µg/mL] | MIC [20] [µg/mL] | HC50 [21] [µg/mL] | MIC [22] [µg/mL] | selectivity ratio [23] | MIC [24] [µg/mL] | MIC [25] [µg/mL] | further results
CN[C@H](CC(C)C)C(=O)N[C@H]1C(=O)N[C@@H](CC(N)=O)C(=O)N[C@H]2C(=O)N[C@H]3C(=O)N[C@H](C(=O)N[C@H](C(=O)O)c4cc(O)cc(O)c4-c4cc3ccc4O)[C@H](O)c3ccc(c(Cl)c3)Oc3cc2cc(c3O[C@@H]2O[C@H](CO)[C@@H](O)[C@H](O)[C@H]2O[C@H]2C[C@](C)(N)[C@H](O)[C@H](C)O2)Oc2ccc(cc2Cl)[C@H]1O [VANCOMYCIN] | 128 (≈ 88.3 µM) | 16 (≈ 11 µM) | > 128 | 0.5 (≈ 0.345 µM) | 128 (≈ 88.3 µM) | 2 (≈ 1.38 µM) | – | – | – | – | – | – | Activity [3]: 1.5 log10CFU/ml; Activity [5]: 99.8%; Activity [6]: Active; Activity [7]: 99.8%; Activity [9]: 96.5%; Activity [10]: 2.7 log10CFU/g; Activity [11]: 2.33 log10CFU/g; Activity [12]: Active; Activity [13]: Active; Activity [15]: Active; Activity [16]: 99.6%; Activity [17]: 2.73 log10CFU/g; Activity [19]: Active
COc1c(C(=O)/C=C/c2ccc(OCCCN(C)CCCN(C)C)cc2)ccc2c1C=CC(C)(CCC=C(C)C)O2 (stereo unspecified) | 4 (≈ 7.13 µM) | 8 (≈ 14.3 µM) | > 128 | 4 (≈ 7.13 µM) | 2 (≈ 3.57 µM) | 2 (≈ 3.57 µM) | 4 (≈ 7.13 µM) | 119 | 4 (≈ 7.13 µM) | 29.8 | 4 (≈ 7.13 µM) | 1 (≈ 1.78 µM) | –
CC(=O)c1c(OCCCNCCCN2CCOCC2)c2c(c3c1OC(C)(CCC=C(C)C)C=C3)OC(C)(CCC=C(C)C)C=C2 (stereo unspecified) | 128 (≈ 206 µM) | 128 (≈ 206 µM) | > 128 | 4 (≈ 6.44 µM) | > 128 | 8 (≈ 12.9 µM) | 4 (≈ 6.44 µM) | 18.1 | 4 (≈ 6.44 µM) | 4.5 | 4 (≈ 6.44 µM) | 4 (≈ 6.44 µM) | –
CCCCN(CCCC)CCCNCCCOc1ccc(/C=C/C(=O)c2ccc3c(c2OC)C=CC(C)(CCC=C(C)C)O3)cc1 (stereo unspecified) | 16 (≈ 25.4 µM) | 8 (≈ 12.7 µM) | 128 (≈ 203 µM) | 4 (≈ 6.34 µM) | 4 (≈ 6.34 µM) | 2 (≈ 3.17 µM) | 4 (≈ 6.34 µM) | 66.9 | 8 (≈ 12.7 µM) | 16.7 | 4 (≈ 6.34 µM) | 1 (≈ 1.59 µM) | –
CC(=O)c1ccc2c(c1OCCCN(C)C)C=CC(C)(CCC=C(C)C)O2 (stereo unspecified) | 8 (≈ 21.5 µM) | 16 (≈ 43.1 µM) | 64 (≈ 172 µM) | 16 (≈ 43.1 µM) | 32 (≈ 86.1 µM) | 16 (≈ 43.1 µM) | 16 (≈ 43.1 µM) | 194 | 16 (≈ 43.1 µM) | 11.9 | 16 (≈ 43.1 µM) | 8 (≈ 21.5 µM) | –
CC(=O)c1c(OCCCNCCN(C)C)c2c(c3c1OC(C)(CCC=C(C)C)C=C3)OC(C)(CCC=C(C)C)C=C2 (stereo unspecified) | 4 (≈ 7.08 µM) | 2 (≈ 3.54 µM) | 32 (≈ 56.7 µM) | 2 (≈ 3.54 µM) | 2 (≈ 3.54 µM) | 1 (≈ 1.77 µM) | 2 (≈ 3.54 µM) | 45.2 | 1 (≈ 1.77 µM) | 22.6 | 2 (≈ 3.54 µM) | 0.5 (≈ 0.885 µM) | –
CNCCCOc1ccc(/C=C/C(=O)c2ccc3c(c2OC)C=CC(C)(CCC=C(C)C)O3)cc1 (stereo unspecified) | 32 (≈ 67.3 µM) | > 128 | > 128 | 4 (≈ 8.41 µM) | > 128 | 4 (≈ 8.41 µM) | 16 (≈ 33.6 µM) | 90.5 | 8 (≈ 16.8 µM) | 5.6 | 8 (≈ 16.8 µM) | 1 (≈ 2.1 µM) | –

From ChEMBL document CHEMBL5614413, “Design, synthesis and biological evaluation of amphiphilic benzopyran derivatives as potent antibacterial agents against multidrug-resistant bacteria” (Eur J Med Chem, 2024)
